Converted amounts (≈) assume the structure as drawn. Like-named read-outs stand apart in the source and are kept apart here.

The test system of data set [1] is rat. The conditions noted are these: in vivo; cited from earlier work.
The subject of data set [2] is rat. As to conditions: cited from earlier work.
The next data set in a line: Pka determination. The data set is classed as physicochemical.
Data set [3] in a line: Solubility in various PH medium. The data set is classed as physicochemical. As to conditions: media of various pH, aqueous buffer.
Data set [4] can be described thus: Half life (t1/2) in acidic and basic PH conditions. The data set is classed as physicochemical. The conditions noted are these: buffer.
The next data set in a line: Solubility in PG. As to conditions: organic solvent or mixture. The class given is physicochemical.
The nature of data set [5]: Stability in aqueous (PH1 and 14) tested by 3% hydrogen peroxide. The data set is classed as physicochemical.
Data set [6] is described as follows: Hygroscopicity (moisture sorption). The class given is physicochemical.

For the compound `CN1CCCC1=O` [N-methylpyrrolidone], the “LD50 (skin)” value in the data set with rat [1] is on record as 7 g/KG bodyweight.
On to Polysorbate80, for which, in the data set with rat [2], the “LD50 (Rat-Oral)” value was 34.5 ml/kg bodyweight.
As for `Cc1cccc(C(C)c2c[nH]c(=S)[nH]2)c1C` (stereo not drawn) [AGN 203818], the pKa in “Pka determination” came out at 11.3. Also, the solubility was 19.3 to 27.5 µg/mL (≈ 83.1 to 118 µM) in [3] (in PH1-11, read-out: Solubility (μg/ml) in various PH medium); greater than 5100 µg/mL in the data set “Solubility in PG”; 24.5 µg/mL (≈ 105 µM) in the data set “Solubility in water” (water). For the same compound, the half-life in data set [4] (pH 1, PH1, read-out: t1/2 (days) PH1 (converted)) is 51 days; in data set [4] (pH 11, PH11, read-out: t1/2 (days) PH11 (converted)) it was 57 days. Moreover, in the data set “Log P (Octanol/water)” (octanol/water), the lipophilicity (logP) lay within 2.9 to 3.12.
Take `CC12CC3CC(C)(C1)CC(N)(C3)C2.Cl` [Memantine HCl]: the pKa in “Pka determination” stood at 10.5. In [5] (PH1 and 14, 3% hydrogen peroxide), the “Stability in aqueous (PH1 and 14) tested by 3% hydrogen peroxide” value is on record as “Stable”. The “stability in both acidic and basic pH conditions” value in data set [5] (acidic and basic pH) is on record as “high stability”. In data set [3] (in PH 2-8, read-out: Solubility in various PH medium), the solubility was greater than 1200 µg/mL. Moreover, the Hygroscopicity result in [6] was “Slightly hygroscopic”. Further, the moisture sorption entry in [6] (at 5-95% RH) was “(<1.1% moisture”. Moreover, the “PH of 1% aqueous solution” value in the data set “Solubility in water” (1% aqueous solution) is “(PH 5.5-6)”. This compound also had a solubility at 24 hr in the data set “Solubility in water” (water) of 45000 µg/mL. In addition, in the data set “Log P (Octanol/water)”, the “Log P (Octanol/water)” value stood at 3.28.

As usually defined, the pKa is the pH at which an ionisable group is half protonated. A lower pKa goes with a stronger acid or weaker base. Broadly, the logP is the decadic logarithm of the partition coefficient of the neutral form, usually between octanol and water. Read a low logP as a more hydrophilic compound.

Source of the values: patent publication US20080107719A1, “Transdermal drug delivery system” (priority 2006, published 2008).
